target: T1, hSCN3A (Homo sapiens, UniProt Q9NY46); test: SCN3A inhibitory activity in HEK cells stably expressing hSCN3A (whole-cell patch clamp / radiotracer efflux HTS); assay type: cell-based; conditions: HEK cells stably transfected with hSCN3A
T1 construct: expressed in transfected cells
T1 sequence (Q9NY46 whole entry): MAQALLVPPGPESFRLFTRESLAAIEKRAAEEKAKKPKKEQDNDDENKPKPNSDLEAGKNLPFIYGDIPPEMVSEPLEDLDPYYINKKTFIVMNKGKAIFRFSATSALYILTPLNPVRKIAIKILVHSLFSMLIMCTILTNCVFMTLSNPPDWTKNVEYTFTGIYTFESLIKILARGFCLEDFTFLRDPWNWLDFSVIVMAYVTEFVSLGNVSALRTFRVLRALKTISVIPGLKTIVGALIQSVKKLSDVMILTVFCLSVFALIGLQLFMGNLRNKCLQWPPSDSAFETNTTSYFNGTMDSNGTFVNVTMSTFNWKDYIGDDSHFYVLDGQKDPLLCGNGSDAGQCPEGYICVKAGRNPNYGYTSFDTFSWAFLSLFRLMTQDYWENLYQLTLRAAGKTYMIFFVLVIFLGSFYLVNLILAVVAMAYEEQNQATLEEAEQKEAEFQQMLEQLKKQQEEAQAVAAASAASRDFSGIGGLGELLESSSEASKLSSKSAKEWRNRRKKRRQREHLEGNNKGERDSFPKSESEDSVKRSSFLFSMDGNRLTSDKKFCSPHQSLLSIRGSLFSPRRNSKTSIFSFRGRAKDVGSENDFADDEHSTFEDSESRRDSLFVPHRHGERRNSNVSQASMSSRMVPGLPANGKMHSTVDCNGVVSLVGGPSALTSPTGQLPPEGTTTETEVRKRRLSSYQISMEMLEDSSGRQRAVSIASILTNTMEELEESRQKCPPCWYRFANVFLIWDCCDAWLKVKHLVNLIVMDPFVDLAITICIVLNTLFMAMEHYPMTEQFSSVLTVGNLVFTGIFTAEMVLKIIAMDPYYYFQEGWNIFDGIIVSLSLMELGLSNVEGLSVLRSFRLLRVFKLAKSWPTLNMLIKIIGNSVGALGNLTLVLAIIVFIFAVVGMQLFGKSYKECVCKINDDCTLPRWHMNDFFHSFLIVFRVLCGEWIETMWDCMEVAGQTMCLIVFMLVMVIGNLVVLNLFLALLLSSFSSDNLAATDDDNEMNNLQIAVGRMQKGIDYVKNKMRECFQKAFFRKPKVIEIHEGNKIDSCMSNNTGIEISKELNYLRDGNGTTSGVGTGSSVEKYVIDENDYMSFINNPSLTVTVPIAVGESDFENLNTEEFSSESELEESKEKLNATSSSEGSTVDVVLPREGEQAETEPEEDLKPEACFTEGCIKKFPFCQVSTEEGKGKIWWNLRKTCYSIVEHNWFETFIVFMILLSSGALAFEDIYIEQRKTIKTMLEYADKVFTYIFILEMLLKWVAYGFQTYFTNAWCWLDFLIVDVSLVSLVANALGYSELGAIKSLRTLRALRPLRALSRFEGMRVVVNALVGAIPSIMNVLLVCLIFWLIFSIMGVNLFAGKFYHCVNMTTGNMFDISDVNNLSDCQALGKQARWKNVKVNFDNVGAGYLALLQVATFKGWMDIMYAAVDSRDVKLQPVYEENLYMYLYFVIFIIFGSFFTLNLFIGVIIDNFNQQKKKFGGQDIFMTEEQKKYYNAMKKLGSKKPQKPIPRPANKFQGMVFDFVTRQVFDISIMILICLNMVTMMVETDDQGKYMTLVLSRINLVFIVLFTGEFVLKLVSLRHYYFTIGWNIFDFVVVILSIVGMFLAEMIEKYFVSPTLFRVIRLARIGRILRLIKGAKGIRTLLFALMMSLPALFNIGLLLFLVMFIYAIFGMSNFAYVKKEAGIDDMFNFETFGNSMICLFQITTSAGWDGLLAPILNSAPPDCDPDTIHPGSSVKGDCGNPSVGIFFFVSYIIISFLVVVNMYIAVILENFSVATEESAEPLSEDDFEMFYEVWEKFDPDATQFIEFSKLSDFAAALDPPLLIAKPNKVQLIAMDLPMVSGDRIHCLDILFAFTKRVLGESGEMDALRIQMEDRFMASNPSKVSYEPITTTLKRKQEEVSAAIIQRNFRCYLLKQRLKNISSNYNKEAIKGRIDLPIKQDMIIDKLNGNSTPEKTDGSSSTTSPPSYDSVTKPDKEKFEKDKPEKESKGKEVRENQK

Row | SMILES | IC50 [nM]
1 | O=S(=O)(Nc1nccs1)c1ccc(-c2nc(-c3ccccc3)c(-c3ccccc3)[nH]2)cc1 [Compound 1, 4-(4,5-Diphenyl-1H-imidazol-2-yl)-N-thiazol-2-yl-benzenesulfonamide] | 100 to 500
2 | O=S(=O)(Nc1nccs1)c1ccc(-c2nnc(C(c3ccccc3)c3ccccc3)[nH]2)cc1 [Compound 3, 4-(5-Benzhydryl-4H-[1,2,4]triazol-3-yl)-N-thiazol-2-yl-benzenesulfonamide] | 100 to 500
3 | Cc1nc(-c2ccc(S(=O)(=O)Nc3nccs3)cc2)[nH]c1-c1ccccc1 [Compound 4, 4-(4-Methyl-5-phenyl-1H-imidazol-2-yl)-N-thiazol-2-yl-benzenesulfonamide] | 500 to 1000
4 | O=S(=O)(Nc1nccs1)c1ccc(-c2ncc(C(c3ccccc3)c3ccccc3)[nH]2)cc1 [Compound 6, 4-(5-Benzhydryl-1H-imidazol-2-yl)-N-thiazol-2-yl-benzenesulfonamide] | 100 to 500
5 | O=S(=O)(Nc1nccs1)c1ccc(-c2ncc(Cc3cc(F)cc(F)c3)[nH]2)cc1 [Compound 7, 4-[5-(3,5-Difluoro-benzyl)-1H-imidazol-2-yl]-N-thiazol-2-yl-benzenesulfonamide] | 100 to 500
6 | O=S(=O)(Nc1nccs1)c1ccc(-c2ncc(Cc3ccc(Cl)cc3)[nH]2)cc1 [Compound 8, 4-[5-(4-Chloro-benzyl)-1H-imidazol-2-yl]-N-thiazol-2-yl-benzenesulfonamide] | 100 to 500
7 | O=S(=O)(Nc1nccs1)c1ccc(-c2nc(CCCOc3ccc(Cl)cc3)c[nH]2)cc1 [Compound 9, 4-{4-[3-(4-Chloro-phenoxy)-propyl]-1H-imidazol-2-yl}-N-thiazol-2-yl-benzenesulfonamide] | 500 to 1000
8 | O=S(=O)(Nc1nccs1)c1ccc(-c2nc3ccccc3[nH]2)cc1 [Compound 10, 4-(1H-Benzoimidazol-2-yl)-N-thiazol-2-yl-benzenesulfonamide] | > 1000
9 | O=S(=O)(Nc1nccs1)c1ccc(-c2nc(CCCOc3ccc(Cl)cc3Cl)c[nH]2)cc1 [Compound 11, 4-{4-[3-(2,4-Dichloro-phenoxy)-propyl]-1H-imidazol-2-yl}-N-thiazol-2-yl-benzenesulfonamide] | < 100
10 | O=S(=O)(Nc1nccs1)c1ccc(-c2nc(C3CCC(c4ccc(Cl)cc4)CC3)c[nH]2)cc1 (stereo not shown) [Compound 12, 4-{4-[4-(4-Chloro-phenyl)-cyclohexyl]-1H-imidazol-2-yl}-N-thiazol-2-yl-benzenesulfonamide] | < 100
11 | O=S(=O)(Nc1nccs1)c1ccc(-c2nc(Cc3ccc(F)cc3Cl)c[nH]2)cc1 [Compound 13, 4-[4-(2-Chloro-4-fluoro-benzyl)-1H-imidazol-2-yl]-N-thiazol-2-yl-benzenesulfonamide] | < 100
12 | O=S(=O)(Nc1nccs1)c1ccc(-c2nc(CCc3ccccc3Cl)c[nH]2)cc1 [Compound 14, 4-{4-[2-(2-Chloro-phenyl)-ethyl]-1H-imidazol-2-yl}-N-thiazol-2-yl-benzenesulfonamide] | 100 to 500
13 | O=S(=O)(Nc1nccs1)c1ccc(-c2nc(CCc3ccc(F)cc3)c[nH]2)cc1 [Compound 15, 4-{4-[2-(4-Fluoro-phenyl)-ethyl]-1H-imidazol-2-yl}-N-thiazol-2-yl-benzenesulfonamide] | 100 to 500
14 | O=S(=O)(Nc1nccs1)c1ccc(-c2nc(Cc3cccc(Cl)c3)c[nH]2)cc1 [Compound 16, 4-[4-(3-Chloro-benzyl)-1H-imidazol-2-yl]-N-thiazol-2-yl-benzenesulfonamide] | < 100
15 | COc1ccc(CCc2c[nH]c(-c3ccc(S(=O)(=O)Nc4nccs4)cc3)n2)cc1Cl [Compound 18, 4-{4-[2-(3-Chloro-4-methoxy-phenyl)-ethyl]-1H-imidazol-2-yl}-N-thiazol-2-yl-benzenesulfonamide] | 100 to 500
16 | O=S(=O)(Nc1nccs1)c1ccc(-c2nc(CCc3ccc(C(F)(F)F)cc3)c[nH]2)cc1 [Compound 19, N-Thiazol-2-yl-4-{4-[2-(4-trifluoromethyl-phenyl)-ethyl]-1H-imidazol-2-yl}-benzenesulfonamide] | 100 to 500
17 | Cc1ccc(C2(c3c[nH]c(-c4ccc(S(=O)(=O)Nc5nccs5)cc4)n3)CCCCC2)cc1 [Compound 21, N-Thiazol-2-yl-4-[4-(1-p-tolyl-cyclohexyl)-1H-imidazol-2-yl]-benzenesulfonamide] | 100 to 500
18 | O=S(=O)(Nc1nccs1)c1ccc(-c2nc(CCc3cc(C(F)(F)F)ccc3C(F)(F)F)c[nH]2)cc1 [Compound 22, 4-{4-[2-(2,5-Bis-trifluoromethyl-phenyl)-ethyl]-1H-imidazol-2-yl}-N-thiazol-2-yl-benzenesulfonamide] | 100 to 500
19 | O=S(=O)(Nc1nccs1)c1ccc(-c2nc(Cc3ccc(F)c(F)c3)c[nH]2)cc1 [Compound 23, 4-[4-(3,4-Difluoro-benzyl)-1H-imidazol-2-yl]-N-thiazol-2-yl-benzenesulfonamide] | 100 to 500
20 | O=S(=O)(Nc1nccs1)c1ccc(-c2nc(C3(c4ccc(Cl)cc4)CCC3)c[nH]2)cc1 [Compound 25, 4-{4-[1-(4-Chloro-phenyl)-cyclobutyl]-1H-imidazol-2-yl}-N-thiazol-2-yl-benzenesulfonamide] | 100 to 500

Row | SMILES | IC50 [nM]
21 | O=S(=O)(Nc1nccs1)c1ccc(-c2nc(CCc3cc(Cl)cc(Cl)c3)c[nH]2)cc1 [Compound 26, 4-{4-[2-(3,5-Dichloro-phenyl)-ethyl]-1H-imidazol-2-yl}-N-thiazol-2-yl-benzenesulfonamide] | < 100
22 | Cc1cccc(Cc2c[nH]c(-c3ccc(S(=O)(=O)Nc4nccs4)cc3)n2)c1 [Compound 27, 4-[4-(3-Methyl-benzyl)-1H-imidazol-2-yl]-N-thiazol-2-yl-benzenesulfonamide] | 100 to 500
23 | O=S(=O)(Nc1nccs1)c1ccc(-c2nc(CCc3cccc(Cl)c3)c[nH]2)cc1 [Compound 28, 4-{4-[2-(3-Chloro-phenyl)-ethyl]-1H-imidazol-2-yl}-N-thiazol-2-yl-benzenesulfonamide] | 100 to 500
24 | Cc1ccc(C)c(CCc2c[nH]c(-c3ccc(S(=O)(=O)Nc4nccs4)cc3)n2)c1 [Compound 29, 4-{4-[2-(2,5-Dimethyl-phenyl)-ethyl]-1H-imidazol-2-yl}-N-thiazol-2-yl-benzenesulfonamide] | 100 to 500
25 | Cc1ccc(Cc2c[nH]c(-c3ccc(S(=O)(=O)Nc4nccs4)cc3)n2)cc1 [Compound 32, 4-[4-(4-Methyl-benzyl)-1H-imidazol-2-yl]-N-thiazol-2-yl-benzenesulfonamide] | > 1000
26 | Cc1ccccc1CCc1c[nH]c(-c2ccc(S(=O)(=O)Nc3nccs3)cc2)n1 [Compound 33, N-Thiazol-2-yl-4-[4-(2-o-tolyl-ethyl)-1H-imidazol-2-yl]-benzenesulfonamide] | 500 to 1000
27 | O=S(=O)(Nc1nccs1)c1ccc(-c2nc(Cc3ccc(C(F)(F)F)cc3)c[nH]2)cc1 [Compound 34, N-Thiazol-2-yl-4-[4-(4-trifluoromethyl-benzyl)-1H-imidazol-2-yl]-benzenesulfonamide] | 100 to 500
28 | O=S(=O)(Nc1nccs1)c1ccc(-c2nc(Cc3ccccc3F)c[nH]2)cc1 [Compound 35, 4-[4-(2-Fluoro-benzyl)-1H-imidazol-2-yl]-N-thiazol-2-yl-benzenesulfonamide] | 500 to 1000
29 | O=S(=O)(Nc1nccs1)c1ccc(-c2nc(Cc3ccc(Cl)c(Cl)c3)c[nH]2)cc1 [Compound 36, 4-[4-(3,4-Dichloro-benzyl)-1H-imidazol-2-yl]-N-thiazol-2-yl-benzenesulfonamide] | < 100
30 | O=S(=O)(Nc1nccs1)c1ccc(-c2nc(C3(c4ccccc4)CC3)c[nH]2)cc1 [Compound 41, 4-[4-(1-Phenyl-cyclopropyl)-1H-imidazol-2-yl]-N-thiazol-2-yl-benzenesulfonamide] | > 1000
31 | O=S(=O)(Nc1nccs1)c1ccc(-c2nc(Cc3ccc(Oc4ccccc4)cc3)c[nH]2)cc1 [Compound 42, 4-[4-(4-Phenoxy-benzyl)-1H-imidazol-2-yl]-N-thiazol-2-yl-benzenesulfonamide] | < 100
32 | O=S(=O)(Nc1nccs1)c1ccc(-c2nc(Cc3cccc(OC(F)(F)F)c3)c[nH]2)cc1 [Compound 43, N-Thiazol-2-yl-4-[4-(3-trifluoromethoxy-benzyl)-1H-imidazol-2-yl]-benzenesulfonamide] | 500 to 1000
33 | COc1ccc(C2(c3c[nH]c(-c4ccc(S(=O)(=O)Nc5nccs5)cc4)n3)CC2)cc1 [Compound 44, 4-{4-[1-(4-Methoxy-phenyl)-cyclopropyl]-1H-imidazol-2-yl}-N-thiazol-2-yl-benzenesulfonamide] | 500 to 1000
34 | O=S(=O)(Nc1nccs1)c1ccc(-c2nc(C(c3ccccc3)C3CCCCC3)c[nH]2)cc1 (stereo not shown) [Compound 47, 4-[4-(Cyclohexyl-phenyl-methyl)-1H-imidazol-2-yl]-N-thiazol-2-yl-benzenesulfonamide] | 100 to 500
35 | O=S(=O)(Nc1nccs1)c1ccc(-c2nc(Cc3ccc4c(c3)OCO4)c[nH]2)cc1 [Compound 49, 4-(4-Benzo[1,3]dioxol-5-ylmethyl-1H-imidazol-2-yl)-N-thiazol-2-yl-benzenesulfonamide] | 500 to 1000
36 | O=S(=O)(Nc1nccs1)c1ccc(-c2nc(Cc3ccccc3C(F)(F)F)c[nH]2)cc1 [Compound 51, N-Thiazol-2-yl-4-[4-(2-trifluoromethyl-benzyl)-1H-imidazol-2-yl]-benzenesulfonamide] | 100 to 500
37 | CS(=O)(=O)c1ccc(Cc2c[nH]c(-c3ccc(S(=O)(=O)Nc4nccs4)cc3)n2)cc1 [Compound 54, 4-[4-(4-Methanesulfonyl-benzyl)-1H-imidazol-2-yl]-N-thiazol-2-yl-benzenesulfonamide] | > 1000
38 | O=S(=O)(Nc1nccs1)c1ccc(-c2nc(CCc3cc(Cl)cc(Cl)c3)c(I)[nH]2)cc1 [Compound 68, 4-{4-[2-(3,5-Dichloro-phenyl)-ethyl]-5-iodo-1H-imidazol-2-yl}-N-thiazol-2-yl-benzenesulfonamide] | < 100
39 | O=S(=O)(Nc1nccs1)c1ccc(-c2nnc(Cc3ccc(Cl)c(Cl)c3)[nH]2)cc1 [Compound 95, 4-[5-(3,4-Dichloro-benzyl)-4H-[1,2,4]triazol-3-yl]-N-thiazol-2-yl-benzenesulfonamide] | < 100
40 | O=S(=O)(Nc1nccs1)c1ccc(-c2nnc(Cc3cccc(Cl)c3)[nH]2)cc1 [Compound 96, 4-[5-(3-Chloro-benzyl)-4H-[1,2,4]triazol-3-yl]-N-thiazol-2-yl-benzenesulfonamide] | 100 to 500

— US7615569B2, “Inhibitors of ion channels” (Icagen, Inc., priority 2005, dated 2009)
